# Literature values as cited in PubChem BioAssay AID1259409 (Chemical Carcinogenesis Research Information System (CCRIS), 2018).
# System: rodent chemically induced tumor inhibition, incidence and multiplicity
# Test: CCRIS tumor inhibitor studies
# Conditions: Promoter: NONE USED
smiles,measurement,setting,value
C/C1=C\C=C(\C(C)C)[C@@H](O)C/C(C)=C/CC/C(C)=C/CC1,"tumour outcome (control, treated, inhibition, significance)","Carcinogen: N-METHYL-N-NITROSOUREA, 684-93-5, Dose [Inhibitor]: 0.01% IN DIET BEGINNING 1 WK POST LAST CARCINOGEN DOSE (STUDY DURATION: 26 WK), Route [Inhibitor]: ORAL, Species: RAT, Strain/Sex: CD-FISCHER/FEMALE, Target Tissue: Type of Lesion: LARGE INTESTINE: TUMOR, Dose [Carcinogen]: 2 MG IN WATER 3/WK FOR 3 WK","22/26 (85%), 15/26 (58%), 32%, p<0.01-p<0.05"
same,"tumour outcome (control, treated, inhibition, significance)","Carcinogen: N-METHYL-N-NITROSOUREA, 684-93-5, Dose [Inhibitor]: 0.01% IN DIET BEGINNING WEEK 1 AND CONTINUING FOR DURATION OF STUDY (STUDY DURATION: 26 WK), Route [Inhibitor]: ORAL, Species: RAT, Strain/Sex: CD-FISCHER/FEMALE, Target Tissue: Type of Lesion: LARGE INTESTINE: TUMOR, Dose [Carcinogen]: 2 MG IN WATER 3/WK FOR WEEKS 1-3","22/26 (85%), 13/26 (50%), 41%, p<0.01-p<0.05"
same,"tumour outcome (control, treated, inhibition, significance)","Carcinogen: N-NITROSOBIS(2-HYDROXYPROPYL)AMINE, 53609-64-6, Dose [Inhibitor]: 0, 0.01% IN DIET FOR 27 WK (STUDY DURATION: 27 WK), Route [Inhibitor]: ORAL, Species: HAMSTER, Strain/Sex: SYRIAN/FEMALE, Target Tissue: Type of Lesion: PANCREAS: TUMOR, Dose [Carcinogen]: 500 MG/KG IN OLIVE OIL 1/WK FOR 27 WK","11/22 (50%), 4/20 (20%), 60%, p<0.05"
O=S(=O)(O)c1ccc(S)cc1,"tumour outcome (control, treated, inhibition, significance)","Carcinogen: BETA-PROPIOLACTONE, 57-57-8, Dose [Inhibitor]: 40 UMOL IN 0.2 ML WATER 5 MIN PRIOR TO EACH CARCINOGEN DOSE (STUDY DURATION: 26 WK), Route [Inhibitor]: GAVAGE, Species: MOUSE, Strain/Sex: STRAIN-A/FEMALE, Target Tissue: Type of Lesion: FORESTOMACH: PAPILLOMA, Dose [Carcinogen]: 28 UMOL IN 0.1 ML WATER 2/WK FOR 10 WK","100%, 57%, 43%, p<0.001"
same,"tumour outcome (control, treated, inhibition, significance)","Carcinogen: BETA-PROPIOLACTONE, 57-57-8, Dose [Inhibitor]: 70 UMOL IN 0.2 ML WATER BEGINNING 5 MIN PRIOR TO EACH CARCINOGEN DOSE (STUDY DURATION: 50 WK), Route [Inhibitor]: INTRARECTAL, Species: RAT, Strain/Sex: F344/MALE, Target Tissue: Type of Lesion: LARGE INTESTINE: ADENOMATOUS POLYP, Dose [Carcinogen]: 35 UMOL IN 0.1 ML PROPYLENE GLYCOL 2/WK FOR 6 WK","100%, 21%, 79%, p<0.001"
C#C[C@]1(O)CC[C@H]2[C@@H]3CCC4=Cc5oncc5C[C@]4(C)[C@H]3CC[C@@]21C,"tumour outcome (control, treated, inhibition, significance)","Carcinogen: 7,12-DIMETHYLBENZ[A]ANTHRACENE, 57-97-6, Dose [Inhibitor]: 0, 2 MG 6 D/WK FOR 169 D BEGINNING 5 D POST CARCINOGEN DOSE (STUDY DURATION: 174 D), Route [Inhibitor]: SUBCUTANEOUS, Species: RAT, Strain/Sex: SPRAGUE-DAWLEY/FEMALE, Target Tissue: Type of Lesion: MAMMARY GLAND: MALIGNANT TUMORS, Dose [Carcinogen]: 20 MG IN 1 ML SESAME OIL ONCE","91%, 67%, 26%, p<0.05"
CCCCCCCCCCCCCCCCCCN,"tumour outcome (control, treated, inhibition, significance)","Carcinogen: 7,12-DIMETHYLBENZ[A]ANTHRACENE, 57-97-6, Dose [Inhibitor]: 0, 0.01% IN 20% CORN OIL DIET BEGINNING 1 WK POST CARCINOGEN DOSE (STUDY DURATION: 17 WK), Route [Inhibitor]: ORAL, Species: RAT, Strain/Sex: SPRAGUE-DAWLEY/FEMALE, Target Tissue: Type of Lesion: MAMMARY GLAND: ADENOCARCINOMA, Dose [Carcinogen]: 5 MG IN 0.5 ML OLIVE OIL ONCE","57%, 57%, 0%, not significant"
same,"tumour outcome (control, treated, inhibition, significance)","Carcinogen: 7,12-DIMETHYLBENZ[A]ANTHRACENE, 57-97-6, Dose [Inhibitor]: 0, 0.1% IN 20% CORN OIL DIET BEGINNING 1 WK POST CARCINOGEN DOSE (STUDY DURATION: 17 WK), Route [Inhibitor]: ORAL, Species: RAT, Strain/Sex: SPRAGUE-DAWLEY/FEMALE, Target Tissue: Type of Lesion: MAMMARY GLAND: ADENOCARCINOMA, Dose [Carcinogen]: 5 MG IN 0.5 ML OLIVE OIL ONCE","57%, 14%, 75%, p<0.001"
CCCCC(C)N=C=S (stereo not given),"tumour outcome (control, treated, inhibition, significance)","Carcinogen: 4-(METHYLNITROSAMINO)-1-(3-PYRIDYL)-1-BUTANONE, 64091-91-4, Dose [Inhibitor]: 0, 1 UMOL ONCE 2 HR PRIOR TO CARCINOGEN DOSE (STUDY DURATION: 16 WK), Route [Inhibitor]: GAVAGE, Species: MOUSE, Strain/Sex: STRAIN-A/FEMALE, Target Tissue: Type of Lesion: LUNG: ADENOMA, Dose [Carcinogen]: 10 UMOL IN 0.1 ML SALINE ONCE","100%, 70%, 30%, p<0.05"
same,"tumour outcome (control, treated, inhibition, significance)","Carcinogen: 4-(METHYLNITROSAMINO)-1-(3-PYRIDYL)-1-BUTANONE, 64091-91-4, Dose [Inhibitor]: 0, 5 UMOL ONCE 2 HR PRIOR TO CARCINOGEN DOSE (STUDY DURATION: 16 WK), Route [Inhibitor]: GAVAGE, Species: MOUSE, Strain/Sex: STRAIN-A/FEMALE, Target Tissue: Type of Lesion: LUNG: ADENOMA, Dose [Carcinogen]: 10 UMOL IN 0.1 ML SALINE ONCE","100%, 30%, 70%, p<0.05"
